Results as given in patent US20260240878A1, “PTP1B/TC-PTP DUAL INHIBITORS AND PROTEIN DEGRADERS” (Purdue Research Foundation, priority 2023, published 2026).
*1 amine or outer side, *2 acyl side, *3 side chain or, on linkers, in order; H or OH if unused. Where a SMILES comes first, the peptide text is derived from it. [ ]: non-standard residue; d: D form. The star is where a group is joined. NHBn(4-(4-Me-thiazol-5-yl)) = Cc1ncsc1-c1ccc(CN*)cc1; NHCH2(1,3-C6H4)CH2CO = O=C(Cc1cccc(CN[*:1])c1)[*:2]; F2Pmp = N[C@@H](Cc1ccc(C(F)(F)P(=O)(O)O)cc1)C(=O)O; Phenylacetyl(4-OH,3-OMe) = COc1cc(CC(=O)*)ccc1O; Benzoyl(3-Br,4-Me) = Cc1ccc(C(=O)*)cc1Br; X1 = Cc1ncsc1-c1ccc([C@H](C)N*)cc1; cisHyp = O=C(O)[C@@H]1C[C@H](O)CN1; Hyp = O=C(O)[C@@H]1C[C@@H](O)CN1; dHyp = O=C(O)[C@H]1C[C@H](O)CN1; dTle = CC(C)(C)[C@@H](N)C(=O)O; Tle = CC(C)(C)[C@H](N)C(=O)O; Cbz = O=C(OCc1ccccc1)*; Aoc = NCCCCCCCC(=O)O; Ahx = NCCCCCC(=O)O

Columns and labels:
[1] = test system: compound 47-mediated PTP1B and TC-PTP degradation; assay: Degradation mechanism verification in HEK293 cells (pretreatment with pathway blockers); format: cell-based; conditions: pretreatment then 100 nM compound 47 for 4 hours
Description: Cells were pre-treated with indicated concentration of MLN4924 (prevents ubiquitination), MG132 (blocks proteasome activity), lenalidomide (prevents CRBN binding) or (S,R,S)-AHPC-Me (prevents VHL binding) followed by 4 hours of treatment with compound 47 at 100 nM showing compound 47-mediated PTP1B/TC-PTP degradation depends on the ubiquitination-proteasome pathway. No degradation was observed when cells were treated with 100 nM cis-compound 47 (inactivated degrader) for 4 hours.
PROTAC-mediated protein degradation requires the obligatory formation of afunctional ternary complex of target protein-PROTAC-E3 ligase to enable target protein ubiquitination by the E3 ligase, followed by proteasomal degradation. The VHL E3 ligase dependency for compound 47 induced PTP1B and TC-PTP degradation was confirmed by preparing cis-isomer of compound 47 (cis-47) in which the VHL E3 ligand was replaced with (S,S,S)-AHPC-Me, an epimer of (S,R,S)-AHPC-Me with diminished affinity for VHL. […] Moreover, the addition of the VHL ligand (S,R,S)-AHPC-Me reduced the compound 47-mediated degradation of the two proteins (FIG. 6A). In contrast, pretreatment of the cell with lenalidomide, a ligand for cereblon (another E3 ligase commonly employed for PROTAC development), had no effect on compound 47-mediated PTP1B and TC-PTP degradation (FIG. 6A). […] The compound 47 mediated PTP1B and TC-PTP degradation and proteasome dependency were also verified by immunofluorescent imaging (FIGS. 6B and 6C).

pSTAT1 = assay: STAT1 phosphorylation in IFN-γ stimulated HEK293 cells (western blot); format: cell-based; conditions: Homo sapiens; HEK293 cells, 16 hours, 20 ng/ml IFN-γ; read-out: EC50 of pSTAT1 activation
Description: Wild-type HEK293 cells were treated with compound 47 or ABBV-CLS-484 for 16 hours, and stimulated with 20 ng/ml IFN-γ to induce JAK-STAT signaling pathway activation.
Abbvie and Calico developed a potent PTP1B/TC-PTP inhibitor ABBV-CLS-484 (disclosed in International PCT application WO2019246513), and it is currently being evaluated as a treatment for locally advanced or metastatic tumors (NCT04777994).

PTP1B [2] = molecular target: T1, PTP1B (Homo sapiens, UniProt P18031); assay: Degradation assay in HEK293 cells (immunoblotting); format: cell-based; design: endogenous in cells; host or cells: HEK293; conditions: 0.2 μM degrader, 16 hours
T1 sequence (P18031 1-435): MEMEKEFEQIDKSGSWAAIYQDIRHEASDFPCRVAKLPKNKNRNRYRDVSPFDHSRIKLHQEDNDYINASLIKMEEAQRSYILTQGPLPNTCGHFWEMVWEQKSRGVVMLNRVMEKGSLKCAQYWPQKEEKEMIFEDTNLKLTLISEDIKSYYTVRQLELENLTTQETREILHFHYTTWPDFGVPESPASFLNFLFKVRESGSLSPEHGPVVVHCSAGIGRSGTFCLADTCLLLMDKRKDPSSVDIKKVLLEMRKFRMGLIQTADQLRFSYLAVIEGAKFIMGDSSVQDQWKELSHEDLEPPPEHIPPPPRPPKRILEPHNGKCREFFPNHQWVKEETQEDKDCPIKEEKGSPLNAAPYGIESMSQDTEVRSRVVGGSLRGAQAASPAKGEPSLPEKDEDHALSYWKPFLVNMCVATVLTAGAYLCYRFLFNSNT

TC-PTP [3] = molecular target: T2, TC-PTP (Homo sapiens, UniProt P17706); assay: Degradation assay in HEK293 cells (immunoblotting); format: cell-based; design: endogenous in cells; host or cells: HEK293; conditions: 0.2 μM degrader, 16 hours, read-out: % Protein Degradation TC-PTP
T2 sequence (P17706 1-415): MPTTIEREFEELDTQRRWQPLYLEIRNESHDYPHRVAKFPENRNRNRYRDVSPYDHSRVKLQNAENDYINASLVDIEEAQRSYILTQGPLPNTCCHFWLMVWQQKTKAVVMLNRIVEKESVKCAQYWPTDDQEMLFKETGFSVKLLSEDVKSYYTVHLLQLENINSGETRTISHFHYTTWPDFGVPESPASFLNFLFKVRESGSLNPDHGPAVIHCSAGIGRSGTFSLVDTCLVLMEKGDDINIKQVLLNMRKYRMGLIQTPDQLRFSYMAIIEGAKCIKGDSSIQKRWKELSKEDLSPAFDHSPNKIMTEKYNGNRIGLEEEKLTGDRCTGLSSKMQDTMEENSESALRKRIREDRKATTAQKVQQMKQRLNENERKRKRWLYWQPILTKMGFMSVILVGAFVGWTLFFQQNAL

PTP1B [4] = molecular target: T1, PTP1B; assay: Degradation assay in HEK293 cells (immunoblotting); format: cell-based; design: Degradation assay was conducted in HEK293 cells with 1 μM degrader and 24 hours incubation; endogenous in cells; host or cells: HEK293; conditions: 1 μM degrader, 24 hours
Description: (§1) HEK293. MIAPaCa-2, HepG2, U2OS, H116, MEF, B16F10, and MC38 cells, were grown in DMEM, while Jurkat and H358 cells were grown in RPMI 1640 supplemented with 10% fetal bovine serum, penicillin (50 units/mL), and streptomycin (50 μg/mL) in a 37° C. incubator containing 5% CO2. 20 ng/ml human (Biolegend #713906) or mouse (Biolegend #714006) Interferon-γ were used for JAK/STAT pathway stimulation.
(§2) Tissues or cultured cells were lysed with ice-cold lysis buffer (50 mM Tris (pH 8.0, 150 mM NaCl, 10% Glycerol, 1% Triton-X-100) supplied with phosphatase inhibitor (Bimake) and protease inhibitor mixture (Roche Applied Science). Equal amounts of protein were resolved by SDS-PAGE, transferred to nitrocellulose membrane, and subjected to immunoblotting. Antibodies used in this study include anti-following proteins: pSTAT1^Tyr701 (Cell Signaling Technology #9167, 1:3000), GAPDH (Cell Signaling Technology #97166, 1:5000), pJAK1^Tyr1034/1035 (Cell Signaling Technology #74129, 1:1000), pJAK2^Tyr1007/1008 (Cell Signaling Technology #3776, 1:1000), TC-PTP (Abcam #ab180764, 1:3000). PTP1B (Abcam #ab244207, 1:1500).
(§3) Degradation assay was conducted in HEK293 cells with 1 μM degrader and 24 hours incubation.
(§4) The degradation assay was conducted in HEK293 cells with 0.2 μM degrader and 16 hours incubation.

TC-PTP [5] = molecular target: T2, TC-PTP; assay: Degradation assay in HEK293 cells (immunoblotting); format: cell-based; design: Degradation assay was conducted in HEK293 cells with 1 μM degrader and 24 hours incubation; endogenous in cells; host or cells: HEK293; conditions: 1 μM degrader, 24 hours, read-out: % Protein Degradation TC-PTP
Description: as §1, §2, §3, §4

PTP1B [6] = molecular target: T1, PTP1B; assay: PTP activity assay with pNPP substrate (IC50, Ki, mode of inhibition); format: biochemical; conditions: pNPP 2 mM, pH 7.0, 25° C.; read-out: IC50, nM PTP1B
Procedure, shortened: (§5)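 Hydrolysis of pNPP measured spectrophotometrically in pH 7.0 DMG buffer (EDTA, NaCl, DTT, BSA) at 25 °C, 0.4 nM enzyme. IC50 at 2 mM pNPP (Km) over an inhibitor titration; mode of inhibition and Ki from rates across varied pNPP and inhibitor levels, fitted to enzyme kinetic models.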

TC-PTP [7] = molecular target: T2, TC-PTP; assay: as above; format: biochemical; conditions: pNPP 2 mM, pH 7.0, 25° C.; read-out: IC50, nM TC-PTP
Procedure, shortened: as §5

TC-PTP [8] = molecular target: T2, TC-PTP; assay: Degradation assay in HEK293 cells (immunoblotting); format: cell-based; design: Degradation assay was conducted in HEK293 cells with 1 μM degrader and 24 hours incubation; endogenous in cells; host or cells: HEK293; conditions: 100 nM, 4 hours
PTP1B [9] = molecular target: T1, PTP1B; assay: Degradation assay in HEK293 cells (immunoblotting); format: cell-based; design: Degradation assay was conducted in HEK293 cells with 1 μM degrader and 24 hours incubation; endogenous in cells; host or cells: HEK293; conditions: 100 nM, 4 hours

| SMILES | effect of pretreatment on compound 47-mediated PTP1B and TC-PTP degradation [1] | IC50 (PTP1B [6]) [nM] | IC50 (TC-PTP [7]) [nM] | also measured |
| --- | --- | --- | --- | --- |
| Cc1ncsc1-c1ccc([C@H](C)NC(=O)[C@@H]2C[C@@H](O)CN2C(=O)[C@@H](N)C(C)(C)C)cc1 [(S,R,S)-AHPC-Me] | reduced | – | – | – |
| CC(C)CCN[C@@H]1CCc2cc(O)c(N3CC(=O)NS3(=O)=O)c(F)c2C1 [ABBV-CLS-484, reference compound] | – | – | – | EC50 (pSTAT1): 79.7 nM |
| COc1cc(CC(=O)N[C@@H](Cc2ccccc2)C(=O)N[C@@H](Cc2ccc(C(F)(F)P(=O)(O)O)cc2)C(=O)N[C@@H](CCCCNC(=O)c2ccc(C)c(Br)c2)C(=O)NCCCCCC(=O)N[C@H](C(=O)N2C[C@H](O)C[C@H]2C(=O)NCc2ccc(-c3scnc3C)cc2)C(C)(C)C)ccc1O [Compound 8, ((4-((S)-3-(((S)-6-(3-bromo-4-methylbenzamido)-1-((6-(((S)-1-((2S,4R)-4-hydroxy-2-((4-(4-methylthiazol-5-yl)benzyl)carbamoyl)pyrrolidin-1-yl)-3,3-dimethyl-1-oxobutan-2-yl)amino)-6-oxohexyl)amino)-1-oxohexan-2-yl)amino)-2-((S)-2-(2-(4-hydroxy-3-methoxyphenyl)acetamido)-3-phenylpropanamido)-3-oxopropyl)phenyl)difluoromethyl)phosphonic Acid] ({Phenylacetyl(4-OH,3-OMe)}-F[F2Pmp]K(Benzoyl(3-Br,4-Me))[Ahx][Tle][Hyp]-{NHBn(4-(4-Me-thiazol-5-yl))}) | – | 16.7 ± 0.9 | 12.8 ± 3.7 | % Protein Degradation PTP1B (PTP1B [2]): 61%; percent TC-PTP degradation at 0.2 µM (TC-PTP [3]): 58%; % Protein Degradation PTP1B (PTP1B [4]): 81%; percent TC-PTP degradation at 1 µM (TC-PTP [5]): 83% |
| COc1cc(CC(=O)N[C@@H](Cc2ccccc2)C(=O)N[C@@H](Cc2ccc(C(F)(F)P(=O)(O)O)cc2)C(=O)N[C@@H](CCCCNC(=O)c2ccc(C)c(Br)c2)C(=O)NCCCCCCCC(=O)N[C@@H](C(=O)N2C[C@@H](O)C[C@@H]2C(=O)NCc2ccc(-c3scnc3C)cc2)C(C)(C)C)ccc1O [Compound 83, ((4-((S)-3-(((S)-6-(3-bromo-4-methylbenzamido)-1-((8-(((R)-1-((2R,4S)-4-hydroxy-2-((4-(4-methylthiazol-5-yl)benzyl)carbamoyl)pyrrolidin-1-yl)-3,3-dimethyl-1-oxobutan-2-yl)amino)-8-oxooctyl)amino)-1-oxohexan-2-yl)amino)-2-((S)-2-(2-(4-hydroxy-3-methoxyphenyl)acetamido)-3-phenylpropanamido)-3-oxopropyl)phenyl)difluoromethyl)phosphonic Acid] ({Phenylacetyl(4-OH,3-OMe)}-F[F2Pmp]K(Benzoyl(3-Br,4-Me))[Aoc][dTle][dHyp]-{NHBn(4-(4-Me-thiazol-5-yl))}) | – | 19 ± 1.9 | 10.6 ± 0.3 | % Protein Degradation PTP1B (PTP1B [4]): 58%; percent TC-PTP degradation at 1 µM (TC-PTP [5]): 66% |
| CC(C)C[C@@H](C=O)NC(=O)[C@H](CC(C)C)NC(=O)[C@H](CC(C)C)NC(=O)OCc1ccccc1 [MG-132] (Cbz-Leu-Leu-Leu-aldehyde) | markedly reduced | – | – | – |
| NS(=O)(=O)OC[C@@H]1C[C@@H](n2ccc3c(N[C@H]4CCc5ccccc54)ncnc32)C[C@@H]1O [MLN-4924] | markedly reduced | – | – | – |
| COc1cc(CC(=O)N[C@@H](Cc2ccccc2)C(=O)N[C@@H](Cc2ccc(C(F)(F)P(=O)(O)O)cc2)C(=O)N[C@@H](CCCCNC(=O)c2ccc(C)c(Br)c2)C(=O)NCc2cccc(CC(=O)N[C@H](C(=O)N3C[C@@H](O)C[C@H]3C(=O)N[C@@H](C)c3ccc(-c4scnc4C)cc3)C(C)(C)C)c2)ccc1O [cis-47] ({Phenylacetyl(4-OH,3-OMe)}-F[F2Pmp]K(Benzoyl(3-Br,4-Me))[NHCH2(1,3-C6H4)CH2CO][Tle][cisHyp]-X1) | – | 25.1 ± 1.6 | 29.7 ± 2.1 | TC-PTP degradation (TC-PTP [8]): failed to degrade; PTP1B degradation (PTP1B [9]): failed to degrade |
| Nc1cccc2c1CN(C1CCC(=O)NC1=O)C2=O (stereo not shown) [lenalidomide] | had no effect | – | – | – |
